Assay: Distribution of radioactivity in tissues of female rats after intravenous administration
Assay type: in vivo
Settings: for Distribution of radioactivity in brain / Distribution of radioactivity in thyroid: no unit in table; for Distribution of radioactivity in brain: b28 gives percent dose/g; for Distribution of radioactivity in thyroid: percent
Protocol: The distribution of radioactivity in tissues of female rats at 5 minutes, 15 minutes, 30 minutes and 60 minutes after intravenous administration of the iodinated compound is shown in the following table. The level of accumulation of radioactivity in the brain after injection of this agent was a significant 1.65 percent dose/g at 5 minutes but the blood levels were also high resulting in blood ratios of 1.6/1 at 5 minutes.

[1] = 1 h (head printed 1 HT/R), intravenous

## CO[C@@H]1O[C@H](COC(C)=O)[C@@H](OC(C)=O)[C@@H](OC(C)=O)[C@@H]1/C=C/[125I] [methyl-2-deoxy-2-(E)-[^125 I]-iodovinyl-2,4,6-O-triacetyl-β-D-altropyranoside]
5 min, intravenous
  Distribution of radioactivity in brain: 1.6525
  Distribution of radioactivity in thyroid: 20.6441
5 minutes, intravenous, in words
  blood levels: high
15 min, intravenous
  Distribution of radioactivity in thyroid: 18.9149
30 min, intravenous
  Distribution of radioactivity in thyroid: 25.7085
[1]
  Distribution of radioactivity in brain: 0.7237
  Distribution of radioactivity in thyroid: 33.4920
60 minutes vs 5 minutes, intravenous
  brain retention compared with the peak uptake at 5 minutes: 50%
60 minutes, intravenous
  accumulation of activity in the thyroid: 33.5%
From thyroid accumulation at 60 minutes, in words
  stability to in vivo deiodination: demonstrated the stability of this agent to in vivo deiodination
Up to 60 minutes, intravenous
  retention in the brain (in words): prolonged retention in the brain
